Columns and labels:
Assay in all cases: relative viability (nuclei count vs DMSO), 5 days (fraction); higher = more cells survive
Ponatinib + Dasatinib = compound: Cc1ccc(C(=O)Nc2ccc(CN3CCN(C)CC3)c(C(F)(F)F)c2)cc1C#Cc1cnc2cccnn12 [Ponatinib] + Cc1nc(Nc2ncc(C(=O)Nc3c(C)cccc3Cl)s2)cc(N2CCN(CCO)CC2)n1 [Dasatinib] (partner 0.075 µM)
In short: (§1)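 Cells from lung cancer lines were seeded into 1536-well plates and, one day later, dosed by pin tool. Treatments were either a single drug or a fixed dose of an anchor drug with five library-drug doses (not always all listed) in √10 steps. After 5 days, nuclei were stained in a one-step fixation (final 0.05% Triton X-100, 1% formaldehyde, 1 ug/ml Hoechst) and counted on 4× images, and relative viability is the treated-to-vehicle nuclei ratio, as the median of duplicate plates.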

Pazopanib + Lapatinib = compound: Cc1ccc(Nc2nccc(N(C)c3ccc4c(C)n(C)nc4c3)n2)cc1S(N)(=O)=O [Pazopanib] + CS(=O)(=O)CCNCc1ccc(-c2ccc3ncnc(Nc4ccc(OCc5cccc(F)c5)c(Cl)c4)c3c2)o1 [Lapatinib] (partner 2 µM)
In short: as §1

Ponatinib + Pemetrexed = compound: Cc1ccc(C(=O)Nc2ccc(CN3CCN(C)CC3)c(C(F)(F)F)c2)cc1C#Cc1cnc2cccnn12 [Ponatinib] + Nc1nc2[nH]cc(CCc3ccc(C(=O)N[C@@H](CCC(=O)O)C(=O)O)cc3)c2c(=O)[nH]1 [Pemetrexed] (partner 0.2 µM)
In short: as §1

Ponatinib + Linsitinib = compound: Cc1ccc(C(=O)Nc2ccc(CN3CCN(C)CC3)c(C(F)(F)F)c2)cc1C#Cc1cnc2cccnn12 [Ponatinib] + C[C@]1(O)C[C@@H](c2nc(-c3ccc4ccc(-c5ccccc5)nc4c3)c3c(N)nccn32)C1 [Linsitinib] (partner 1 µM)
In short: as §1

| Cell Line | relative viability (Ponatinib + Dasatinib; first compound 0.002 µM) | relative viability (Ponatinib + Dasatinib; first compound 0.006325 µM) | relative viability (Ponatinib + Dasatinib; first compound 0.06325 µM) | relative viability (Ponatinib + Dasatinib; first compound 0.2 µM) | relative viability (Pazopanib + Lapatinib; first compound 0.01 µM) | relative viability (Pazopanib + Lapatinib; first compound 0.03162 µM) | relative viability (Pazopanib + Lapatinib; first compound 0.1 µM) | relative viability (Pazopanib + Lapatinib; first compound 0.3162 µM) | relative viability (Pazopanib + Lapatinib; first compound 1 µM) | relative viability (Ponatinib + Pemetrexed; first compound 0.002 µM) | relative viability (Ponatinib + Pemetrexed; first compound 0.006325 µM) | relative viability (Ponatinib + Pemetrexed; first compound 0.06325 µM) | relative viability (Ponatinib + Pemetrexed; first compound 0.2 µM) | relative viability (Ponatinib + Linsitinib; first compound 0.002 µM) | relative viability (Ponatinib + Linsitinib; first compound 0.006325 µM) | relative viability (Ponatinib + Linsitinib; first compound 0.06325 µM) | relative viability (Ponatinib + Linsitinib; first compound 0.2 µM) |
| --- | --- | --- | --- | --- | --- | --- | --- | --- | --- | --- | --- | --- | --- | --- | --- | --- | --- |
| NCI-H1437 | 0.316 | 0.382 | 0.36 | 0.357 | 0.919 | 0.877 | 0.823 | 0.815 | 0.785 | 0.312 | 0.294 | 0.32 | 0.27 | 0.999 | 1.05 | 1.05 | 0.915 |
| NCI-H520 | 0.205 | 0.201 | 0.162 | 0.139 |  | 0.96 | 0.766 | 0.859 | 0.921 | 0.59 | 0.636 | 0.556 | 0.407 | 0.773 | 1 | 0.867 | 0.628 |
| NCI-H1666 | 0.761 | 0.829 | 0.906 | 0.853 | 0.644 | 0.677 | 0.718 | 0.763 | 0.972 | 0.847 | 0.829 | 0.928 | 0.837 | 0.765 | 0.916 | 1.09 | 0.859 |
| NCI-H1651 | 0.398 | 0.435 | 0.451 | 0.355 | 0.76 | 0.876 | 0.885 | 0.857 | 1.12 | 0.558 | 0.627 | 0.614 | 0.588 | 0.906 | 0.978 | 1.09 | 0.932 |
| NCI-H1755 | 0.453 | 0.388 | 0.362 | 0.385 | 0.943 | 0.993 | 1.02 | 1.02 | 1.02 | 0.402 | 0.404 | 0.398 | 0.466 | 0.984 | 0.949 | 1.05 | 0.986 |
| HARA | 0.281 | 0.215 | 0.233 | 0.173 | 0.582 | 0.746 | 0.58 | 0.725 | 0.695 | 0.262 | 0.23 | 0.246 | 0.282 | 0.916 | 0.916 | 0.976 | 0.944 |
| NCI-H647 | 0.159 | 0.171 | 0.211 | 0.117 | 0.87 | 1.21 | 1.17 | 1.08 | 1.16 | 0.203 | 0.193 | 0.17 | 0.203 | 1.22 | 1.01 | 1.05 | 1.1 |
| NCI-H1563 | 0.473 | 0.506 | 0.447 | 0.434 | 0.75 | 1 | 0.997 | 1.09 | 1.16 | 0.748 | 0.798 | 0.745 | 0.641 | 1.22 | 1.26 | 1.21 | 1.1 |
| NCI-H23 | 0.667 | 0.748 | 0.867 | 0.726 | 0.887 | 1.3 | 1.41 | 1.09 | 1.14 | 0.616 | 0.766 | 0.819 | 0.666 | 0.501 | 0.602 | 0.705 | 0.608 |
| LCLC-97TM1 | 0.983 | 0.94 | 0.906 | 0.863 |  | 0.613 | 0.974 | 1.52 | 0.918 | 0.166 | 0.142 | 0.167 | 0.161 |  | 0.218 |  | 0.197 |
| EPLC-272H | 0.359 | 0.33 | 0.376 | 0.279 | 0.638 | 0.797 | 1.01 | 1.14 | 0.802 | 0.397 | 0.359 | 0.388 | 0.408 | 1.06 | 1.24 | 1.31 | 0.801 |
| NCI-H1915 | 0.308 | 0.33 | 0.27 | 0.267 | 0.898 | 1.03 | 1.01 | 0.976 | 0.941 | 0.459 | 0.423 | 0.529 | 0.423 | 1.02 | 1.08 | 1.09 | 0.995 |
| NCI-H3122 | 0.773 | 0.85 | 0.838 | 0.809 | 1.09 | 1.04 | 1.17 | 1.01 | 1.08 | 0.208 | 0.194 | 0.214 | 0.194 | 0.982 | 1.02 | 1.01 | 1.06 |
| NCI-H358 | 0.185 | 0.184 | 0.236 | 0.187 | 0.482 | 0.53 | 0.356 | 0.442 | 0.489 | 0.168 | 0.162 | 0.189 | 0.174 | 0.847 | 0.771 | 0.758 | 0.522 |
| NCI-H1793 | 0.37 | 0.36 | 0.348 | 0.352 |  | 0.705 | 0.525 | 0.755 | 0.852 | 0.792 | 0.914 | 0.774 | 0.671 | 0.815 | 0.924 | 0.964 | 0.762 |
| SK-MES-1 | 0.32 | 0.413 | 0.455 | 0.33 | 0.43 | 0.472 | 0.508 | 0.491 | 0.58 | 0.89 | 0.934 | 1.16 | 0.948 | 0.99 | 1.12 | 1.12 | 1.07 |
| PC-14 | 0.244 | 0.24 | 0.292 | 0.248 | 0.305 | 0.295 | 0.304 | 0.379 | 0.45 | 0.129 | 0.137 | 0.141 | 0.122 | 0.927 | 0.91 | 1.13 | 1.01 |
| CAL-12T | 0.48 | 0.37 | 0.365 | 0.219 | 0.483 | 0.669 | 0.69 | 0.733 | 0.816 | 1.13 | 1.14 | 1.31 | 1.21 | 0.791 | 0.773 | 1.12 | 0.899 |

Reference: the supplement of paper PMC10307832
